We go through eleven molecules from patent US4719211A, “2,3,4,9-tetrahydro-2-heteroarylalkyl-1H-pyrido(3,4-B)indoles having antihypertensive properties” (American Home Products Corporation, priority 1986, dated 1988).

The structures appear in SMILES notation. pKi: −log10 of the molar value. Counter-ions that a name gives are not always drawn.

Experiment [1] has as its system spontaneously hypertensive rat (SHR). The experiment can be described thus: Antihypertensive effect: change in systolic blood pressure in spontaneously hypertensive rats (tail plethysmography). Type of experiment: in vivo. The method, then:
The systolic blood pressure of male conscious, spontaneously hypertensive rat (SHR) (Taconic Farms) is measured by indirect tail plethysmography using a system designed and built by Narco Bio-Systems-(Model MK-IV). Groups consisting of 4 rats receive a single oral dose of the test compound. Rats are warmed in a heated chamber at 38° C. for 10 minutes prior to measurement of systolic pressure to increase the accuracy of measurements.
The systolic pressure and heart rate data are collected in an Hewlett Packard 88 computer. Data are grouped and summarized, with the mean change in pressure and heart rate at each time period calculated.
Unless otherwise noted, the compound was tested in the form in which it was obtained in the example.

The next experiment has as its system rats. The experiment can be described thus: Conditioned avoidance response procedure (response lever). Type of experiment: in vivo. Particulars: ip, rat, i.p.; for ED50: read-out: AB50 (dose producing 50% block in avoidance responding). The method, then: In conditioned avoidance response type procedures, the effect of the drug on the subject animals previously trained ability to avoid and/or escape a shock is measured. […] If the compound blocks the subject animal's ability to escape the shock, then the compound is judged to have a sedative effect.
In this procedure, rats trained previously are placed in plexiglass experimental chambers equipped with a response lever, house light, and sonalert. A steel grid floor is wired for presentation of electric shock. Each trial consists of a fifteen-second warning tone (conditioned stimulus), continuing for an additional fifteen seconds accompanied by electric shock, (unconditioned stimulus). The rat can terminate a trial at any point by depression of the response lever. A response during the initial fifteen-second warning tone ends the trial before shock delivery and is considered an avoidance response, while a response occuring during shock delivery is an escape response. Trials are presented on a variable interval schedule of two minutes. The session consists of sixty trials. Animals are run two to three times weekly with control sessions always preceding a drug run, and with at least one day intervening, compounds are administered i.p. (p.o., s.c.) at appropriate pre-treatment times to a minimum of five to six rats at each dose level over a range of doses.
The following experimental parameters are recorded by computer: (1) the number of intertrial interval responses, (2) the number of avoidance responses, (3) the number of escape responses, and (4) the number of trials in which no response occured.
Response counts are summed over all subjects at a given dose. […] This number is expressed as a percentage of the total trials. Control performance is assumed to be 100% for avoidance and escape responding and the dose calculated to produce a 50% block in avoidance responding (AB50) is obtained from a dose-effect regression line fitted by the method of least squares. […] If both AB50 's and EB20 's can be calculated, a dose ratio can be determined according to the following formula: […]

The target of experiment [2] is T1, limbic D-2 dopamine receptor (Rattus norvegicus, UniProt P61169).
T1 construct: Limbic brain tissue (nucleus accumbens, septal area, olfactory tubercle) is dissected and homogenized on ice; from tissue; host or cells: rat limbic brain tissue (nucleus accumbens, septal area, olfactory tubercle), washed membrane homogenate
The experiment can be described thus: Inhibition of limbic D-2 dopamine receptor binding (3H-spiroperidol, rat limbic brain homogenate). The conditions noted are these: 0.3 nM 3H-spiroperidol, read-out: Ki (and 95% confidence interval). The method, then: Several rats are decapitated and the brains are rapidly removed. […] The homogenate is then diluted 4-fold with buffer and centrifuged at 30,000×g for 20 min, and the supernatant is discarded. The pellet is resuspended in the same volume of buffer and recentrifuged as before, again discarding the supernatant. This pellet is then resuspended in the same volume of buffer used in the homogenization, and the protein content of this preparation is assayed by the Lowry method. The homogenate is stored frozen at -70° C. until use.
The vials are then counted in a Packard 460CD scintillation counter.
Specific binding is defined as total binding less binding in the presence of 1 μM (+)butaclamol. Binding in the presence of various concentrations of test drug is expressed as a percent of specific binding when no drug is present. […] Linear regression analysis then yields a straight line with 95% confidence limits from which an IC50 can be inversely predicted. Ki (inhibition constant) for the test drug is then calculated by the formula: [formula]

In the next experiment the test system is male CF-1 mice. The experiment can be described thus: Antagonism of apomorphine-induced stereotyped behavior in mice. The conditions noted are these: apomorphine 10 mg/kg s.c. The class given is in vivo, mouse. The method, then: In the second procedure, the compound's (drug's) abiltiy to antagonize apomorphine-induced stereotyped behavior in mice is measured. In the procedure, 20-25 g male CF-1 mice (Charles River) are tested one week before the experiment for a positive stereotyped response to 10 mg/kg s.c. apomorphine. Test compounds, suspended or solubilized in 0.25% Tween 80 ® in water, are administered at several dose levels to male mice (6/dose level). A control group, run simultaneously with drug groups, receives equal volumes of solvent. Thiry minutes later (i.p. administration) or 60 minutes later (p.o administration), drug-treated and control mice are challenged with 10 mg/kg apomorphine s.c. Five minutes after the injection, the rearing-head-bobbing-licking syndrome induced by apomorphine is recorded as present or absent for each animal. Readings are repeated every 5 minutes during a 30 minute test session. The number of positive or negative 5-minute intervals during which apoomorphine-induced stereotyped behavior is present or absent. ED50 values (with 95% confidence intervals) are calculated for inhibition of apomorphine-inducedstereotyped behavior, by a simple linear regression analysis with inverse prediction.

[3] abbreviates: SHR, single oral dose 50 mg/kg, 1.5 hrs.
The mark [4] stands for this setting: SHR, single oral dose 10 mg/kg, 1.5 hrs.
[5] abbreviates: SHR, single oral dose 10 mg/kg, 4 hrs.
The mark [6] stands for this setting: SHR, single oral dose 50 mg/kg, 4 hrs.

T1 sequence (P61169 whole entry): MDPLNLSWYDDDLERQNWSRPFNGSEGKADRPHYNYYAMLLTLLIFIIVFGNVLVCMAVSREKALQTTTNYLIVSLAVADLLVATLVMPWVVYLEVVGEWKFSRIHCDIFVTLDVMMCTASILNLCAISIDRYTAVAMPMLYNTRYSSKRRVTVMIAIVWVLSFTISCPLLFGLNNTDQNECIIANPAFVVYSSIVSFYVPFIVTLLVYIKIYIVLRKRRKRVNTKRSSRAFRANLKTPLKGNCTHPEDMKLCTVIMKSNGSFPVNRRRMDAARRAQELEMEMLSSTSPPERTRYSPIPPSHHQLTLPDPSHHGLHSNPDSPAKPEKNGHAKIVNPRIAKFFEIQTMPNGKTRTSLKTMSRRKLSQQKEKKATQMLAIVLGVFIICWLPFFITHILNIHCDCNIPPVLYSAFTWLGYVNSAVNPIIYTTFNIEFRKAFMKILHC

Consider `Cl.Cl.c1ccc2c(CCCCN3CCc4c([nH]c5ccccc45)C3)ccnc2c1` [Example 6, 2,3,4,9-Tetrahydro-2-[4-(4-Quinolinyl)butyl]-1H-Pyrido[3,4-b]Indole, Dihydrochloride], for which the “Change in Blood Pressure” value in experiment [1] (setting [3]) is on record as -94 mm of Hg.

In the case of `Cl.Cl.c1ccc2c3c([nH]c2c1)CN(CCCCc1ccncc1)CC3` [Example 4, 2,3,4,9-Tetrahydro-2-[4-(4-Pyridinyl)butyl]-1H-Pyrido[3,4-b]Indole Dihydrochloride], the ED50 in the experiment on rats amounted to 14.1 mg/kg. Further, the “Change in Blood Pressure” value in experiment [1] (setting [4]) was -43 mm of Hg; in experiment [1] (setting [5]), -39 mm of Hg; in experiment [1] (setting [3]) it was -105 mm of Hg; in experiment [1] (setting [6]), -115 mm of Hg.

With `Cl.Cl.c1ccc2nc(CCN3CCc4c([nH]c5ccccc45)C3)ccc2c1` [Example 5, 2,3,4,9-Tetrahydro-2-[2-(2-Quinolinyl)ethyl]-1H-Pyrido[3,4-b]Indole Dihydrochloride], the minimal effective dose in the experiment with rats (read-out: dose down to which the avoidance response is blocked in a dose dependant manner) is no more than 15 mg/kg. Moreover, the pKi (usually −log10 of the Ki, conventionally taken in molar units) in experiment [2] is 6.78. In addition, the “Change in Blood Pressure” value in experiment [1] (setting [4]) is -25 mm of Hg; in experiment [1] (setting [3]), -98 mm of Hg; in experiment [1] (setting [6]), -84 mm of Hg. Moreover, in the experiment with male CF-1 mice (Mus musculus, ip, read-out: ED50 for inhibition of apomorphine-induced stereotyped behavior), the ED50 was 18 mg/kg. The “ED50 for inhibition of apomorphine-induced stereotyped behavior” value in the experiment on male CF-1 mice (i.p., Dihydrochloride) is given as 20.37 mg/kg.

With `Cl.Cl.c1ccc2c3c([nH]c2c1)CN(CCc1ccncc1)CC3` [Example 2, 2,3,4,9-Tetrahydro-2-[2-(4-Pyridinyl)ethyl]-1H-Pyrido[3,4-b]Indole, Dihydrochloride], the “Change in Blood Pressure” value was -73 mm of Hg in experiment [1] (setting [4]); -30 mm of Hg in experiment [1] (setting [5]); -18 mm of Hg in experiment [1] (SHR, single oral dose 25 mg/kg, 1.5 hrs.); -58 mm of Hg in experiment [1] (SHR, single oral dose 25 mg/kg, 4 hrs.); -79 mm of Hg in experiment [1] (setting [3]); -57 mm of Hg in experiment [1] (setting [6]).

For `Cl.Cl.c1ccc2nc(CN3CCc4c([nH]c5ccccc45)C3)ccc2c1` [2,3,4,9-tetrahydro-2-(2-quinolinylmethyl)-1H-pyrido[3,4-b]-indole, dihydrochloride, reference compound], in experiment [1] (50 mg/kg, time not stated, did not lower blood pressure significantly), the “Change in Blood Pressure” value is -10 mm Hg.

As for `c1ccc(CCN2CCc3c([nH]c4ccccc34)C2)nc1` [Example 9, 2,3,4,9-Tetrahydro-2-[2-(2-Pyridinyl)ethyl]-1H-pyrido[3,4-b]-indole, Dihydrochloride.], the ED50 in the experiment on rats was determined as 22.6 mg/kg.

Turning to `Cl.Cl.c1ccc2c3c([nH]c2c1)CN(CCc1cnccn1)CC3` [Example 7, 2,3,4,9-Tetrahydro-2-[2-(2Pyrazinyl)ethyl]-1H-Pyrido[3,4-b]Indole, Dihydrochloride], the “Change in Blood Pressure” value in experiment [1] (SHR, single oral dose 5 mg/kg, 1.5 hrs.) is -14 mm of Hg; in experiment [1] (setting [3]), -110 mm of Hg; in experiment [1] (setting [6]) it was -104 mm of Hg.

Consider `Cl.Cl.O.c1ccc2c3c([nH]c2c1)CN(CCCCCCCc1ccncc1)CC3` [Example 3, 2,3,4,9-Tetrahydro-2-[7-(4-Pyridinyl)heptyl]-1H-Pyrido[3,4-b]Indole, Dihydrochloride Hydrate], for which the figures for the “Change in Blood Pressure” value in experiment [1] (setting [3]) and in experiment [1] (setting [6]) were -44 mm of Hg and -58 mm of Hg, respectively.

For the molecule `Cl.Cl.c1cncc(CCCN2CCc3c([nH]c4ccccc34)C2)c1` [Example 13, 2,3,4,9-Tetrahydro-2-[3-(3-Pyridinyl)propyl]1H-pyrido[3,4-b]indole, dihydrochloride], the ED50 with rats stood at 20.9 mg/kg.

With `Cl.Cl.c1ccc2nc(CCCCN3CCc4c([nH]c5ccccc45)C3)ccc2c1` [Example 8, 2,3,4,9-Tetrahydro-2-[4-(2-Quinolinyl)butyl]1H-Pyrido[3,4-b]Indole, Dihydrochloride], in the experiment with rats, the ED50 came out at 31 mg/kg.

With `c1ccc2c3c([nH]c2c1)CN(Cc1ccncc1)CC3` [Example 1, 2,3,4,9-Tetrahydro-2-(4-Pyridinylmethyl)-1H-Pyrido-[3,4-b]Indole, Dihydrochloride Hemihydrate], the “Change in Blood Pressure” value in experiment [1] (setting [3]) is given as -27 mm of Hg; in experiment [1] (setting [6]), -35 mm of Hg.
